Like-named read-outs stand apart in the source and are kept apart here.
Assays:
CDK1/Cyclin E1 = CDK1/Cyclin E1 (Homo sapiens, UniProt P06493); assay: NanoBRET live-cell target engagement, CDK1-NanoLuc/Cyclin E1 in HEK-293; type: binding; conditions: CDK1/E1; for IC50: read-out: IC50
CDK2/Cyclin E1 = CDK2/Cyclin E1 (Homo sapiens, UniProt P24941); assay: NanoBRET live-cell target engagement, CDK2-NanoLuc/Cyclin E1 in HEK-293; type: binding; conditions: CDK2/E1; for IC50: read-out: IC50
CDK3/Cyclin E1 = CDK3/Cyclin E1 (Homo sapiens, UniProt Q00526); assay: NanoBRET live-cell target engagement, CDK3-NanoLuc/Cyclin E1 in HEK-293; type: binding; conditions: CDK3/E1; for IC50: read-out: IC50
Chain of CDK3/Cyclin E1 (Q00526 whole entry): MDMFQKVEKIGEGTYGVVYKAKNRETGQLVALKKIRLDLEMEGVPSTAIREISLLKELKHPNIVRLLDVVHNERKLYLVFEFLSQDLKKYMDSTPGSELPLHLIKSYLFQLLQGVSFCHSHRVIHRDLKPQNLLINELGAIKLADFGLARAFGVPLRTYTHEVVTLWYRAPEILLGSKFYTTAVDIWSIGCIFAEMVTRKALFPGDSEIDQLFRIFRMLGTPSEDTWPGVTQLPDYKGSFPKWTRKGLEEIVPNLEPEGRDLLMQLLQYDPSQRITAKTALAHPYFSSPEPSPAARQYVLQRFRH
Chain of CDK3/Cyclin E1 (P24864 whole entry partner): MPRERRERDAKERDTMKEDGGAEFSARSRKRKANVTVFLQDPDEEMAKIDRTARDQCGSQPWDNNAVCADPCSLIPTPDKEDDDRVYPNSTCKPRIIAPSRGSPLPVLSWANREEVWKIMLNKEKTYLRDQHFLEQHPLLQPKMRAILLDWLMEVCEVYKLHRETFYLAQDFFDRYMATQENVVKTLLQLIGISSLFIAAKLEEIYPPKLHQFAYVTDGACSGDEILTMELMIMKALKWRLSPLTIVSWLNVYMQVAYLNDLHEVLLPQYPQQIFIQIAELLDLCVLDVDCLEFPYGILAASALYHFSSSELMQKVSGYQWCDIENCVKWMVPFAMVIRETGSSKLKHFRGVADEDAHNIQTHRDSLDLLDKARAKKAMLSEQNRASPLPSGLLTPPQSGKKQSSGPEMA

CDK4/Cyclin D1 = CDK4/Cyclin D1 (Homo sapiens, UniProt P11802); assay: NanoBRET live-cell target engagement, NanoLuc-CDK4/Cyclin D1 in HEK-293; type: binding; conditions: CDK4/D1
Chain of CDK4/Cyclin D1 (P11802 whole entry): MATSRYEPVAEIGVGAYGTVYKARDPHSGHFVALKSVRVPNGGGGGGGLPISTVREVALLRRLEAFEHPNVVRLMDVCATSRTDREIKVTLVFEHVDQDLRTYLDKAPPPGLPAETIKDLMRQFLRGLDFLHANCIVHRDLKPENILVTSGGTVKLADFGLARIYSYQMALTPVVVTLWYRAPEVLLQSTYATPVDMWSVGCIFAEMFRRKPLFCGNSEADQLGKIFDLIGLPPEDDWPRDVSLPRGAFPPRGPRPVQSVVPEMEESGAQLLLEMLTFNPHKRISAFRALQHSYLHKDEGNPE
Chain of CDK4/Cyclin D1 (P24385 whole entry partner): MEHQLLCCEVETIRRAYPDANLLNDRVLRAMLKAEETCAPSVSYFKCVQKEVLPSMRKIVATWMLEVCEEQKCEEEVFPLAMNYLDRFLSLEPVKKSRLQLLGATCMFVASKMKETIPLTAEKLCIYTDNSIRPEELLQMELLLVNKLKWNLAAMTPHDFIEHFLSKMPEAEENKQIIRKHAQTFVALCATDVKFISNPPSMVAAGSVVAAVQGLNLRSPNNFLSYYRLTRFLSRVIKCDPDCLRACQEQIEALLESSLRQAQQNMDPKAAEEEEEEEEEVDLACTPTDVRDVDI

CDK5/CDK5R1 = CDK5/CDK5R1 (Homo sapiens, UniProt Q00535); assay: NanoBRET live-cell target engagement, CDK5-NanoLuc/CDK5R1 in HEK-293; type: binding; conditions: CDK5/CDK5R1; for IC50: read-out: IC50
Chain of CDK5/CDK5R1 (Q00535 whole entry): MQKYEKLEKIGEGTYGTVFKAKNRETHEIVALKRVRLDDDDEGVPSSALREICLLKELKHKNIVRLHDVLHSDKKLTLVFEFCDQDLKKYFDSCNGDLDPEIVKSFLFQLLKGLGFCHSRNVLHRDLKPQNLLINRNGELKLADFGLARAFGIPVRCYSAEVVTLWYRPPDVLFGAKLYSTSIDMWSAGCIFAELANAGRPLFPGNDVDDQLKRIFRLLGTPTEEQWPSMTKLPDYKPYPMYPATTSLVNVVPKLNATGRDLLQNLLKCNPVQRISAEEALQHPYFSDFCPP
Chain of CDK5/CDK5R1 (Q15078 whole entry partner): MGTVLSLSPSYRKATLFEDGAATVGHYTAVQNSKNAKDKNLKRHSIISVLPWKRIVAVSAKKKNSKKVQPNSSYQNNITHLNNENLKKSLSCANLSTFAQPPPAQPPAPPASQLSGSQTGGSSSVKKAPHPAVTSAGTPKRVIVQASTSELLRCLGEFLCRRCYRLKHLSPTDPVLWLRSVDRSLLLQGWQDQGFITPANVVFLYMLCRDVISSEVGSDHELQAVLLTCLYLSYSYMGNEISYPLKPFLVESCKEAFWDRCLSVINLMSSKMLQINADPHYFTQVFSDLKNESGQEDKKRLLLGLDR

CDK6/Cyclin D1 = CDK6/Cyclin D1 (Homo sapiens, UniProt Q00534); assay: NanoBRET live-cell target engagement, NanoLuc-CDK6/Cyclin D1 in HEK-293; type: binding; conditions: CDK6/D1
CDK7 = CDK7 (Homo sapiens, UniProt P50613); assay: NanoBRET live-cell target engagement, NanoLuc-CDK7 in HEK-293; type: binding; conditions: CDK7; for IC50: read-out: IC50
Chain of CDK7 (P50613 whole entry): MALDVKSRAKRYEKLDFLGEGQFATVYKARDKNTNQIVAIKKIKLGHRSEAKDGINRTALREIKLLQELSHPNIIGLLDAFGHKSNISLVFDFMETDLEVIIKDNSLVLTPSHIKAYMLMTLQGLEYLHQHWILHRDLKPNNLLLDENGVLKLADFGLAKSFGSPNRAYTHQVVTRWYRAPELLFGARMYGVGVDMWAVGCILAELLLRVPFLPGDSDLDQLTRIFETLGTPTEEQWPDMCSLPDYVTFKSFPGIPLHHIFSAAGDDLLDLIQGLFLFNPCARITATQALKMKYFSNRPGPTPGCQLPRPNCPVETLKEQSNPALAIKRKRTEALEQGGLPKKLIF

CDK8/Cyclin C = CDK8/Cyclin C (Homo sapiens, UniProt P49336); assay: NanoBRET live-cell target engagement, NanoLuc-CDK8/Cyclin C in HEK-293; type: binding; conditions: CDK8/C; for IC50: read-out: IC50
CDK9/Cyclin K = CDK9/Cyclin K (Homo sapiens, UniProt P50750); assay: NanoBRET live-cell target engagement, NanoLuc-CDK9/Cyclin K in HEK-293; type: binding; conditions: CDK9/K
CDK11A/Cyclin L2 = molecular target: T1, CDK11A/Cyclin L2 (Homo sapiens, UniProt Q9UQ88); assay: NanoBRET live-cell target engagement, CDK11A-NanoLuc/Cyclin L2 in HEK-293; type: binding; conditions: CDK11a/L2
T1 sequence (Q9UQ88 1-783): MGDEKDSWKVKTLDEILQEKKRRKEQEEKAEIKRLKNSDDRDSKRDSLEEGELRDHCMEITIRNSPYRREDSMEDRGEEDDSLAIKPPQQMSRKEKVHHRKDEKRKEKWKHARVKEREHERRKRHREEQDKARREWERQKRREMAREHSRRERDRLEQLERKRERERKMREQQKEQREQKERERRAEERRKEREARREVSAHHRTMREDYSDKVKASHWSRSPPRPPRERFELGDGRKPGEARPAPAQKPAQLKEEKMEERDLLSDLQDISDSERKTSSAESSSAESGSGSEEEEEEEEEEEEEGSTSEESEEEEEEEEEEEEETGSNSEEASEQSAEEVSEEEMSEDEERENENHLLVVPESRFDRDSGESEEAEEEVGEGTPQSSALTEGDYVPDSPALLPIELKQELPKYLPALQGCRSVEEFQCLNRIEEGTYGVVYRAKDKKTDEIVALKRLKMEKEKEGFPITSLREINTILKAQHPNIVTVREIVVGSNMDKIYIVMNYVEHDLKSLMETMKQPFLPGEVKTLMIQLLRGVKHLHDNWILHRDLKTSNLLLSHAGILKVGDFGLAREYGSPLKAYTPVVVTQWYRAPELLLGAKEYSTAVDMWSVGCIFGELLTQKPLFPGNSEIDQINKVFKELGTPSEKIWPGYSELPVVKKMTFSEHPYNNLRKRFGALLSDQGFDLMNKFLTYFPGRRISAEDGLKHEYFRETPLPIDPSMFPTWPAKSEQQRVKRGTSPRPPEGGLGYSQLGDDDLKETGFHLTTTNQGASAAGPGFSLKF

CDK11B/Cyclin L2 = CDK11B/Cyclin L2 (Homo sapiens, UniProt P21127); assay: NanoBRET live-cell target engagement, CDK11B-NanoLuc/Cyclin L2 in HEK-293; type: binding; conditions: CDK11b/L2
Chain of CDK11B/Cyclin L2 (P21127 1-782 isoform P21127-2): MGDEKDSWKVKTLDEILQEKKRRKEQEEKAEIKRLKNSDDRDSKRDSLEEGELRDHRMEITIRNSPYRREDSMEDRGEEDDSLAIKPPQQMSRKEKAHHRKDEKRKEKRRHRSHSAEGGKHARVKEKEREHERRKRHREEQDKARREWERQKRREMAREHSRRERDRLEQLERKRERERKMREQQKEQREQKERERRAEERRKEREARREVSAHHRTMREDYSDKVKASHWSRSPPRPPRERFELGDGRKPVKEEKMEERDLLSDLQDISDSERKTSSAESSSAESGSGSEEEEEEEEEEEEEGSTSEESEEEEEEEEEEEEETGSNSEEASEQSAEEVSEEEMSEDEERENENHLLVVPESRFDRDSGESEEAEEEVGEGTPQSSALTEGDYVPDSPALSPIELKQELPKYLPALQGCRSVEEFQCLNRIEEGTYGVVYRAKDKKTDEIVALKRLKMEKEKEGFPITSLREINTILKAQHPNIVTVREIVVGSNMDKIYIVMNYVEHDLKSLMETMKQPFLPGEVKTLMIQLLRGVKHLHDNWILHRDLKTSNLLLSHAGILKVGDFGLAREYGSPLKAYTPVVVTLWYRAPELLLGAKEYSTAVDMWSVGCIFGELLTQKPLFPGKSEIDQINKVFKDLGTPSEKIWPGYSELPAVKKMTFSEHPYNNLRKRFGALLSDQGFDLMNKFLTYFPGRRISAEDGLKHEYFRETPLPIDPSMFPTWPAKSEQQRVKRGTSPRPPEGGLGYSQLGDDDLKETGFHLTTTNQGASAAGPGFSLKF

CDK14/Cyclin Y = CDK14/Cyclin Y (Homo sapiens, UniProt O94921); assay: NanoBRET live-cell target engagement, CDK14-NanoLuc/Cyclin Y in HEK-293; type: binding; conditions: CDK14/Y
Chain of CDK14/Cyclin Y (O94921 whole entry): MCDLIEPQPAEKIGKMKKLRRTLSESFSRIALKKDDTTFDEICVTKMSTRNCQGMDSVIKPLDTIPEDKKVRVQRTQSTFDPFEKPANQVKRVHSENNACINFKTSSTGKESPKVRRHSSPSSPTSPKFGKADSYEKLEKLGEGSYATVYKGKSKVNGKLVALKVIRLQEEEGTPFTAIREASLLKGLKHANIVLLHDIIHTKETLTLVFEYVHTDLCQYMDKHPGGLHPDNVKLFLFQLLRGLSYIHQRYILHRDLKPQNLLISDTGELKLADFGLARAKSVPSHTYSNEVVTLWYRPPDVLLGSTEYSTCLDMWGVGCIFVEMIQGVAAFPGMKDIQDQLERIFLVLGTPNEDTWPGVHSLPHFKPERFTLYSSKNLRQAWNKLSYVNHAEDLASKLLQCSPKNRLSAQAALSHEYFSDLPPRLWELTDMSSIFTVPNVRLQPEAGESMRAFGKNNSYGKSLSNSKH
Chain of CDK14/Cyclin Y (Q8ND76 whole entry partner): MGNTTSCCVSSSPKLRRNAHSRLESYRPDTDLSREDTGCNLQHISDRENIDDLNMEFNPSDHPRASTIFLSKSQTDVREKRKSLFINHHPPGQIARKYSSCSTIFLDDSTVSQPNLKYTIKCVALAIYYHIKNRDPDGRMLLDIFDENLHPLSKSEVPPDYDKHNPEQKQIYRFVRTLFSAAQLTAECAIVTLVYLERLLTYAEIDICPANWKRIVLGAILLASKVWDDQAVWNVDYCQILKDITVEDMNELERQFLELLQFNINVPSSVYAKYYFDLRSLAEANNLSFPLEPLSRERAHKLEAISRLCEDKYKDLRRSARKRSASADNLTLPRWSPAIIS

CDK15/Cyclin Y = CDK15/Cyclin Y (Homo sapiens, UniProt Q96Q40); assay: NanoBRET live-cell target engagement, NanoLuc-CDK15/Cyclin Y in HEK-293; type: binding; conditions: CDK15/Y
CDK16/Cyclin Y = CDK16/Cyclin Y (Homo sapiens, UniProt Q00536); assay: NanoBRET live-cell target engagement, CDK16-NanoLuc/Cyclin Y in HEK-293; type: binding; conditions: CDK16/Y
CDK17/Cyclin Y = CDK17/Cyclin Y (Homo sapiens, UniProt Q00537); assay: NanoBRET live-cell target engagement, CDK17-NanoLuc/Cyclin Y in HEK-293; type: binding; conditions: CDK17/Y
Chain of CDK17/Cyclin Y (Q00537 whole entry): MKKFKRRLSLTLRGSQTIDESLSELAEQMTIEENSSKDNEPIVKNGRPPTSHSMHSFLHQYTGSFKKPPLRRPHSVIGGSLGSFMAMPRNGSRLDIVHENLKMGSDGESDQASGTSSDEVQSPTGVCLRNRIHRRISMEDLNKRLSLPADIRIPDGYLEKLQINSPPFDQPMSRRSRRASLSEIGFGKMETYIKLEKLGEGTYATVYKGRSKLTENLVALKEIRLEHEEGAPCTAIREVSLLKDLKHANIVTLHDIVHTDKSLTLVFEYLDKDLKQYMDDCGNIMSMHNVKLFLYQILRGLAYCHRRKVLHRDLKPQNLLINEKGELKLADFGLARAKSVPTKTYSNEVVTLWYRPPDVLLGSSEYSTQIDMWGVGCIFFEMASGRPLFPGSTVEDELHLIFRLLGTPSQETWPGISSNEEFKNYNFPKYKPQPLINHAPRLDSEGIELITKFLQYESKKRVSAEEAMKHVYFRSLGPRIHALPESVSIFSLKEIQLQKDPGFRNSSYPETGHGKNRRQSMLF
Chain of CDK17/Cyclin Y (Q8ND76 whole entry partner): as the sequence (Q8ND76 whole entry partner) above

CDK18/Cyclin Y = CDK18/Cyclin Y (Homo sapiens, UniProt Q07002); assay: NanoBRET live-cell target engagement, CDK18-NanoLuc/Cyclin Y in HEK-293; type: binding; conditions: CDK18/Y
Chain of CDK18/Cyclin Y (Q07002 whole entry): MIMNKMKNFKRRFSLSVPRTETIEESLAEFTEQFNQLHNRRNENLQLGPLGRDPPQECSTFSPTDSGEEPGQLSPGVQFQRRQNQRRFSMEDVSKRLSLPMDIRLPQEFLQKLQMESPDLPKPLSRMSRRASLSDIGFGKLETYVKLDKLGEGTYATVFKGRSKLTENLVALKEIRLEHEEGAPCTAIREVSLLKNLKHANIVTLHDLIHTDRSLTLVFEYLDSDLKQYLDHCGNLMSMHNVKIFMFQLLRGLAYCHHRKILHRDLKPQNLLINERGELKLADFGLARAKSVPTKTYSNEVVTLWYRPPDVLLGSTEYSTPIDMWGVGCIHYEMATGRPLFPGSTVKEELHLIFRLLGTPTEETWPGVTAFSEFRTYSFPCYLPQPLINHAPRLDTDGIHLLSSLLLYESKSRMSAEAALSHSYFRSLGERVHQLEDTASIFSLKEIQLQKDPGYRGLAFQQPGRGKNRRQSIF
Chain of CDK18/Cyclin Y (Q8ND76 whole entry partner): as the sequence (Q8ND76 whole entry partner) above

CDK20/Cyclin H = CDK20/Cyclin H (Homo sapiens, UniProt Q8IZL9); assay: NanoBRET live-cell target engagement, NanoLuc-CDK20/Cyclin H in HEK-293; type: binding; conditions: CDK20/H
CDK19/Cyclin C = CDK19/Cyclin C (Homo sapiens, UniProt Q9BWU1); assay: NanoBRET live-cell target engagement, NanoLuc-CDK19/Cyclin C in HEK-293; conditions: CDK19/C
CDK10/Cyclin L2 = CDK10/Cyclin L2 (Homo sapiens, UniProt Q15131); assay: NanoBRET live-cell target engagement, CDK10-NanoLuc/Cyclin L2 in HEK-293; conditions: CDK10/L2

In the case of `CCn1cnc2c(Nc3cccc(Cl)c3)nc(N[C@@H]3CCCC[C@@H]3N)nc21` [CGP74514A], the “Inhibition at 10µM (%)” value (CDK1/Cyclin E1; average) is reported as 78.9%, the IC50 (CDK1/Cyclin E1; average (± SEM where n=3)) is reported as 130 nM and the “Inhibition at 10µM (%)” value (CDK1/Cyclin E1; experiment 1) is reported as 77.7%. For the same molecule, the IC50 (CDK1/Cyclin E1; experiment 1) was 100 nM, the “Inhibition at 10µM (%)” value (CDK1/Cyclin E1; experiment 2) was 80.1% and the IC50 (CDK1/Cyclin E1; experiment 2) was 163 nM. The “Inhibition at 10µM (%)” value (CDK2/Cyclin E1; average) was 94.2%, the IC50 (CDK2/Cyclin E1; average (± SEM where n=3)) was 62 nM and the “Inhibition at 10µM (%)” value (CDK2/Cyclin E1; experiment 1) was 93.3%. The IC50 (CDK2/Cyclin E1; experiment 1) was 63 nM, the “Inhibition at 10µM (%)” value (CDK2/Cyclin E1; experiment 2) was 95.2% and the IC50 (CDK2/Cyclin E1; experiment 2) was 60 nM. For the same molecule, the “Inhibition at 10µM (%)” value (CDK3/Cyclin E1; average) was 92.7%, the IC50 (CDK3/Cyclin E1; average (± SEM where n=3)) was 75 nM and the “Inhibition at 10µM (%)” value (CDK3/Cyclin E1; experiment 1) was 92.6%. For the same molecule, the IC50 (CDK3/Cyclin E1; experiment 1) was 39 nM, the “Inhibition at 10µM (%)” value (CDK3/Cyclin E1; experiment 2) was 92.8% and the IC50 (CDK3/Cyclin E1; experiment 2) was 110 nM. For the same molecule, the “Inhibition at 10µM (%)” value (CDK4/Cyclin D1; average) was 72.2%, the “Inhibition at 10µM (%)” value (CDK4/Cyclin D1; experiment 1) was 63.2% and the “Inhibition at 10µM (%)” value (CDK4/Cyclin D1; experiment 2) was 81.2%. For the same molecule, the “Inhibition at 10µM (%)” value (CDK5/CDK5R1; average) was 93.3%, the IC50 (CDK5/CDK5R1; average (± SEM where n=3)) was 100 nM and the “Inhibition at 10µM (%)” value (CDK5/CDK5R1; experiment 1) was 90.4%. The IC50 (CDK5/CDK5R1; experiment 1) was 74 nM, the “Inhibition at 10µM (%)” value (CDK5/CDK5R1; experiment 2) was 96.2% and the IC50 (CDK5/CDK5R1; experiment 2) was 130 nM. The “Inhibition at 10µM (%)” value (CDK6/Cyclin D1; average) was 58.7%, the “Inhibition at 10µM (%)” value (CDK6/Cyclin D1; experiment 1) was 51.0% and the “Inhibition at 10µM (%)” value (CDK6/Cyclin D1; experiment 2) was 66.5%. The “Inhibition at 10µM (%)” value (CDK7; average) was 93.3%, the IC50 (CDK7; average (± SEM where n=3)) was 95 nM and the “Inhibition at 10µM (%)” value (CDK7; experiment 1) was 96.5%. For the same molecule, the IC50 (CDK7; experiment 1) was 100 nM, the “Inhibition at 10µM (%)” value (CDK7; experiment 2) was 90.2% and the IC50 (CDK7; experiment 2) was 90 nM. For the same molecule, the “Inhibition at 10µM (%)” value (CDK8/Cyclin C; average) was 3.2%, the IC50 (CDK8/Cyclin C; average (± SEM where n=3)) was 260 nM and the “Inhibition at 10µM (%)” value (CDK8/Cyclin C; experiment 1) was 5.8%. The IC50 (CDK8/Cyclin C; experiment 1) was 290 nM, the “Inhibition at 10µM (%)” value (CDK8/Cyclin C; experiment 2) was 0.659% and the IC50 (CDK8/Cyclin C; experiment 2) was 230 nM. For the same molecule, the “Inhibition at 10µM (%)” value (CDK9/Cyclin K; average) was 71.1%, the “Inhibition at 10µM (%)” value (CDK9/Cyclin K; experiment 1) was 68.0% and the “Inhibition at 10µM (%)” value (CDK9/Cyclin K; experiment 2) was 74.2%. The “Inhibition at 10µM (%)” value (CDK11A/Cyclin L2; average) was 29.9%, the “Inhibition at 10µM (%)” value (CDK11A/Cyclin L2; experiment 1) was 16.5% and the “Inhibition at 10µM (%)” value (CDK11A/Cyclin L2; experiment 2) was 43.3%. The “Inhibition at 10µM (%)” value (CDK11B/Cyclin L2; average) was 21.5%, the “Inhibition at 10µM (%)” value (CDK11B/Cyclin L2; experiment 1) was 20.4% and the “Inhibition at 10µM (%)” value (CDK11B/Cyclin L2; experiment 2) was 22.7%. The “Inhibition at 10µM (%)” value (CDK14/Cyclin Y; average) was 63.7%, the “Inhibition at 10µM (%)” value (CDK14/Cyclin Y; experiment 1) was 59.7% and the “Inhibition at 10µM (%)” value (CDK14/Cyclin Y; experiment 2) was 67.6%. The “Inhibition at 10µM (%)” value (CDK15/Cyclin Y; average) was 85.2%, the “Inhibition at 10µM (%)” value (CDK15/Cyclin Y; experiment 1) was 84.1% and the “Inhibition at 10µM (%)” value (CDK15/Cyclin Y; experiment 2) was 86.4%. The “Inhibition at 10µM (%)” value (CDK16/Cyclin Y; experiment 1) was 76.4%, the “Inhibition at 10µM (%)” value (CDK16/Cyclin Y; experiment 2) was 76.7% and the “Inhibition at 10µM (%)” value (CDK17/Cyclin Y; average) was 80.2%. For the same molecule, the “Inhibition at 10µM (%)” value (CDK17/Cyclin Y; experiment 1) was 79.4%, the “Inhibition at 10µM (%)” value (CDK17/Cyclin Y; experiment 2) was 81.0% and the “Inhibition at 10µM (%)” value (CDK18/Cyclin Y; average) was 86.9%. The “Inhibition at 10µM (%)” value (CDK18/Cyclin Y; experiment 1) was 81.1%, the “Inhibition at 10µM (%)” value (CDK18/Cyclin Y; experiment 2) was 92.6% and the “Inhibition at 10µM (%)” value (CDK20/Cyclin H; experiment 1) was 40.4%. For the same molecule, the “Inhibition at 10µM (%)” value (CDK20/Cyclin H; experiment 2) was 47.3%, the “Inhibition at 10µM (%)” value (CDK19/Cyclin C; average) was 9.3% and the “Inhibition at 10µM (%)” value (CDK19/Cyclin C; experiment 1) was 26.1%. The “Inhibition at 10µM (%)” value (CDK19/Cyclin C; experiment 2) was -7.5%, the “Inhibition at 10µM (%)” value (CDK10/Cyclin L2; average) was 40.2% and the “Inhibition at 10µM (%)” value (CDK10/Cyclin L2; experiment 1) was 37.4%. For the same molecule, the “Inhibition at 10µM (%)” value (CDK10/Cyclin L2; experiment 2) was 42.9%.

From article PMC7265341, “Quantifying CDK inhibitor selectivity in live cells” (Nature Communications, 2020)
